# Source: patent publication US20260022142A1, “MACROCYCLIC IMMUNOMODULATORS” (Bristol-Myers Squibb Company, priority 2022, published 2026)
# Bridge positions count the residues as written; N and C are the ends. Square brackets hold non-standard residues; d marks the D form. Peptide text beside a SMILES is read from it. * marks the point of attachment. ξ: configuration not given here. Phe(4-CONH2) = NC(=O)c1ccc(C[C@H](N)C(=O)O)cc1; Phe(4-COOH) = N[C@@H](Cc1ccc(C(=O)O)cc1)C(=O)O; Bip = N[C@@H](Cc1ccc(-c2ccccc2)cc1)C(=O)O; NH(CH2)14COOH = O=C(O)CCCCCCCCCCCCCCN*; Phe(3-Me) = Cc1cccc(C[C@H](N)C(=O)O)c1; Val(3-OH) = CC(C)(O)[C@H](N)C(=O)O; Cha = N[C@@H](CC1CCCCC1)C(=O)O; Cit = NC(=O)NCCC[C@H](N)C(=O)O; Thr(3ξ) = CC(O)[C@H](N)C(=O)O; Carboxymethyl = O=C(O)C*; Orn = NCCC[C@H](N)C(=O)O; Aun = NCCCCCCCCCCC(=O)O; Dab = NCC[C@H](N)C(=O)O; Dap = NC[C@H](N)C(=O)O; AEEA = NCCOCCOCC(=O)O; ξDab = NCCC(N)C(=O)O
# Biological target: T1, PD-1/PD-L1 interaction (PE-labeled human PD-L1-Ig binding to Jurkat cell line over-expressing human PD-1) (Homo sapiens, UniProt Q15116)
# T1 construct: expressed in transfected cells; host or cells: Jurkat
# Assay: Jurkat-PD-1 Cell Binding High-Content Screening Assay (CBA)
# Format: cell-based
# Details: Jurkat cell line over-expressing human PD-1; PE-labeled PD-L1-Ig 20 nM final; read-out: Jurkat hPD1-PDL1 IC50
# Summary of the method: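 Human PD-L1-Ig carrying a covalent PE label on its Ig tag serves as the probe, applied at 20 nM final to compound-treated (2 h, 37° C) Jurkat-hPD-1 cells in medium with 10% fetal calf serum. After one hour, fixation and nuclear staining precede high-content image analysis.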
# T1 sequence (Q15116 25-288): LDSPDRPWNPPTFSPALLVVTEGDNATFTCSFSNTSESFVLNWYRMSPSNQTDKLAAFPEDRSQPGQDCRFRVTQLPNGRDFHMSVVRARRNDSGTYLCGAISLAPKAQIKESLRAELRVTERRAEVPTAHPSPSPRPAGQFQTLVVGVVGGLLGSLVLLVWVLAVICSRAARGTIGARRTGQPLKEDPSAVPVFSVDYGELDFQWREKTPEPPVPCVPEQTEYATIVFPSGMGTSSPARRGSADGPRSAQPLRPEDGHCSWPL
row,IC50 [nM],SMILES
1,9.4,CC(C)C[C@H]1NC(=O)[C@H](CCCN)NC(=O)[C@H](C(C)C)NC(=O)[C@H](Cc2ccc(-c3ccccc3)cc2)NC(=O)[C@H](C(C)C)NC(=O)[C@H](Cc2c[nH]c3ccccc23)NC(=O)[C@H](CC(=O)O)NC(=O)[C@H](Cc2ccc(OCC(=O)O)cc2)NC(=O)[C@H](CN)NC(=O)CSC[C@@H](C(=O)N[C@@H](CCN)C(=O)NCCOCCOCC(=O)NCCCCCCCCCCC(=O)O)NC(=O)[C@H](CCCCN)NC(=O)[C@H](C(C)C)NC(=O)[C@H](CC2CCCCC2)NC(=O)[C@H](CCN)NC1=O [Compound 2549] ({CH2CO}-[Dap]Y(Carboxymethyl)DWV[Bip]V[Orn][dL][Dab][Cha]VKC[Dab][AEEA][Aun]-OH; thioether N-14)
2,91,Cc1cccc(C[C@@H]2NC(=O)[C@H](CC(=O)O)NC(=O)[C@H](Cc3ccc(OCC(=O)O)cc3)NC(=O)[C@H](C(C)O)NC(=O)CSC[C@@H](C(=O)NC(CCN)C(=O)NCCCCCCCCCCC(=O)O)NC(=O)[C@H](C(C)O)NC(=O)[C@H](C(C)C)NC(=O)[C@H](CC3CCCCC3)NC(=O)[C@H](CCN)NC(=O)[C@@H](CC(C)C)NC(=O)[C@H](CCCN)NC(=O)[C@H](CCC(=O)O)NC(=O)[C@H](Cc3ccc(-c4ccccc4)cc3)NC(=O)[C@H](CCC(=O)O)NC2=O)c1 (stereo partly drawn) [Compound 3448] ({CH2CO}-[Thr(3ξ)]Y(Carboxymethyl)D[Phe(3-Me)]E[Bip]E[Orn][dL][Dab][Cha]V[Thr(3ξ)]C[ξDab][Aun]-OH; thioether N-14)
3,40.1,Cc1cccc(C[C@@H]2NC(=O)[C@H](CC(=O)O)NC(=O)[C@H](Cc3ccc(OCC(=O)O)cc3)NC(=O)[C@H](Cc3ccc(C(N)=O)cc3)NC(=O)CSC[C@@H](C(=O)N[C@@H](CCCCN)C(=O)NCCCCCCCCCCC(=O)O)NC(=O)[C@H](CCCCN)NC(=O)[C@H](C(C)O)NC(=O)[C@H](CC3CCCCC3)NC(=O)[C@H](CCN)NC(=O)[C@@H](CC(C)C)NC(=O)[C@H](CCCN)NC(=O)[C@H](Cc3ccc(O)cc3)NC(=O)[C@H](Cc3ccc(-c4ccccc4)cc3)NC(=O)[C@H](C(C)C)NC2=O)c1 (stereo partly drawn) [Compound 3600] ({CH2CO}-[Phe(4-CONH2)]Y(Carboxymethyl)D[Phe(3-Me)]V[Bip]Y[Orn][dL][Dab][Cha][Thr(3ξ)]KCK[Aun]-OH; thioether N-14)
4,22.1,CC(C)C[C@@H]1NC(=O)[C@H](Cc2c[nH]c3ccccc23)NC(=O)[C@H](CC(=O)O)NC(=O)[C@H](Cc2ccc(C(=O)O)cc2)NC(=O)[C@H](Cc2ccc(OCC(=O)O)cc2)NC(=O)CSC[C@@H](C(=O)N[C@@H](CN)C(=O)NCCCCCCCCCCC(=O)O)NC(=O)[C@H](CCCNC(N)=O)NC(=O)[C@H](C(C)C)NC(=O)[C@H](CC2CCCCC2)NC(=O)[C@H](CCN)NC(=O)[C@@H](CC(C)C)NC(=O)[C@H](CCCN)NC(=O)[C@H](Cc2ccc(O)cc2)NC(=O)[C@H](Cc2ccc(-c3ccccc3)cc2)NC1=O [Compound 1233] ({CH2CO}-Y(Carboxymethyl)[Phe(4-COOH)]DWL[Bip]Y[Orn][dL][Dab][Cha]V[Cit]C[Dap][Aun]-OH; thioether N-14)
5,119,Cc1cccc(C[C@@H]2NC(=O)[C@H](CC(=O)O)NC(=O)[C@H](Cc3ccc(OCC(=O)O)cc3)NC(=O)[C@H](C)NC(=O)CSC[C@@H](C(=O)N[C@@H](CCN)C(=O)NCCOCCOCC(=O)NCCOCCOCC(=O)NCCCCCCCCCCCCCCC(=O)O)NC(=O)[C@H](Cc3cnc[nH]3)NC(=O)[C@H](C(C)(C)O)NC(=O)[C@H](CC3CCCCC3)NC(=O)[C@H](CCN)NC(=O)[C@@H](CC(C)C)NC(=O)[C@H](CCCN)NC(=O)[C@H](Cc3ccc(C(=O)O)cc3)NC(=O)[C@H](Cc3ccc(-c4ccccc4)cc3)NC(=O)[C@H](Cc3ccc(C(=O)O)cc3)NC2=O)c1 [Compound 3855] ({CH2CO}-AY(Carboxymethyl)D[Phe(3-Me)][Phe(4-COOH)][Bip][Phe(4-COOH)][Orn][dL][Dab][Cha][Val(3-OH)]HC[Dab][AEEA][AEEA]-{NH(CH2)14COOH}; thioether N-14)
6,43.7,CC(C)C[C@H]1NC(=O)[C@H](CCCN)NC(=O)[C@H](C(C)C)NC(=O)[C@H](Cc2ccc(-c3ccccc3)cc2)NC(=O)[C@H](C(C)C)NC(=O)[C@H](Cc2c[nH]c3ccccc23)NC(=O)[C@H](CC(=O)O)NC(=O)[C@H](Cc2ccc(OCC(=O)O)cc2)NC(=O)[C@H](Cc2ccc(OCC(=O)O)cc2)NC(=O)CSC[C@@H](C(=O)N[C@@H](CCN)C(=O)NCCCCCCCCCCC(=O)O)NC(=O)[C@H](CCCNC(=N)N)NC(=O)[C@H](C(C)C)NC(=O)[C@H](CC2CCCCC2)NC(=O)[C@H](CCN)NC1=O [Compound 2556] ({CH2CO}-Y(Carboxymethyl)Y(Carboxymethyl)DWV[Bip]V[Orn][dL][Dab][Cha]VRC[Dab][Aun]-OH; thioether N-14)
7,9.2,Cc1cccc(C[C@@H]2NC(=O)[C@H](CC(=O)O)NC(=O)[C@H](Cc3ccc(OCC(=O)O)cc3)NC(=O)[C@H](CCN)NC(=O)CSC[C@@H](C(=O)N[C@@H](CCN)C(=O)NCCCCCCCCCCC(=O)O)NC(=O)[C@H](CO)NC(=O)[C@H](C(C)(C)O)NC(=O)[C@H](CC3CCCCC3)NC(=O)[C@H](CCN)NC(=O)[C@@H](CC(C)C)NC(=O)[C@H](CCCN)NC(=O)[C@H](Cc3ccc(O)cc3)NC(=O)[C@H](Cc3ccc(-c4ccccc4)cc3)NC(=O)[C@H](Cc3ccc(C(N)=O)cc3)NC2=O)c1 [Compound 3603] ({CH2CO}-[Dab]Y(Carboxymethyl)D[Phe(3-Me)][Phe(4-CONH2)][Bip]Y[Orn][dL][Dab][Cha][Val(3-OH)]SC[Dab][Aun]-OH; thioether N-14)
8,25.1,Cc1cccc(C[C@@H]2NC(=O)[C@H](CC(=O)O)NC(=O)[C@H](Cc3ccc(OCC(=O)O)cc3)NC(=O)[C@H]([C@@H](C)O)NC(=O)CSC[C@@H](C(=O)N[C@@H](CCN)C(=O)NCCCCCCCCCCC(=O)O)NC(=O)[C@H]([C@@H](C)O)NC(=O)[C@H](C(C)C)NC(=O)[C@H](CC3CCCCC3)NC(=O)[C@H](CCN)NC(=O)[C@@H](CC(C)C)NC(=O)[C@H](CCCN)NC(=O)[C@H](Cc3ccc(O)cc3)NC(=O)[C@H](Cc3ccc(-c4ccccc4)cc3)NC(=O)[C@H](Cc3ccc(OCC(=O)O)cc3)NC2=O)c1 [Compound 2092] ({CH2CO}-TY(Carboxymethyl)D[Phe(3-Me)]Y(Carboxymethyl)[Bip]Y[Orn][dL][Dab][Cha]VTC[Dab][Aun]-OH; thioether N-14)
9,31.6,Cc1cccc(C[C@@H]2NC(=O)[C@H](CC(=O)O)NC(=O)[C@H](Cc3ccc(OCC(=O)O)cc3)NC(=O)[C@H](CC(N)=O)NC(=O)CSC[C@@H](C(=O)N[C@@H](CCN)C(=O)NCCCCCCCCCCC(=O)O)NC(=O)[C@H](C(C)O)NC(=O)[C@H](C(C)C)NC(=O)[C@H](CC3CCCCC3)NC(=O)[C@H](CCN)NC(=O)[C@@H](CC(C)C)NC(=O)[C@H](CCN)NC(=O)[C@H](Cc3ccc(O)cc3)NC(=O)[C@H](Cc3ccc(-c4ccccc4)cc3)NC(=O)[C@H](CC(C)C)NC2=O)c1 (stereo partly drawn) [Compound 3374] ({CH2CO}-NY(Carboxymethyl)D[Phe(3-Me)]L[Bip]Y[Dab][dL][Dab][Cha]V[Thr(3ξ)]C[Dab][Aun]-OH; thioether N-14)
